Test [1] concerns MCF7. As to the kind of experiment: Cytotoxicity against human MCF7 cells assessed as reduction in cell viability measured after 24 hrs by MTT assay. It counts as functional, cell-based. Conditions: MCF7, 24 h. Background: Tetrazolium assays rely on reduction of a dye to a coloured formazan, in cell work by metabolically active cells.
A short description of test [2]: Antioxidant activity assessed as DPPH radical scavenging activity incubated for 30 mins under dark condition relative to control. It counts as functional. More on the design: concentration or dose not given beside the values. Background: DPPH is a stable violet radical that fades when it is reduced.
The subject of test [3] is A549. The test can be described thus: Cytotoxicity against human A549 cells assessed as reduction in cell viability measured after 72 hrs by MTT assay. The format is functional, cell-based. Conditions: A549, 72 h.
Test [4] relates to SW480. As to the kind of experiment: Cytotoxicity against human SW480 cells assessed as reduction in cell viability measured after 24 hrs by MTT assay. Conditions: SW480, 24 h. The format is functional, cell-based.
Test [5] relates to HeLa. The test can be described thus: Cytotoxicity against human HeLa cells assessed as reduction in cell viability measured after 24 hrs by MTT assay. The format is functional, cell-based.
The test system of test [6] is MCF7. The test can be described thus: Induction of apoptosis in human MCF7 cells assessed as up regulation of IL-2 expression at IC50 measured after 48 hrs by ELISA relative to control. The format is functional.
For test [7], the system named is HeLa. As to the kind of experiment: Cytotoxicity against human HeLa cells assessed as reduction in cell viability measured after 48 hrs by MTT assay. It counts as functional, cell-based.
Test [8] deals with HeLa. The test can be described thus: Cytotoxicity against human HeLa cells assessed as reduction in cell viability measured after 72 hrs by MTT assay. It counts as functional, cell-based.
The subject of test [9] is SW480. As to the kind of experiment: Cytotoxicity against human SW480 cells assessed as reduction in cell viability measured after 72 hrs by MTT assay. As to conditions: SW480, 72 h. The format is functional, cell-based.
In test [10] the test system is SW480. The test can be described thus: Cytotoxicity against human SW480 cells assessed as reduction in cell viability measured after 48 hrs by MTT assay. It counts as functional, cell-based. Conditions: SW480, 48 h.
Test [11] concerns MCF7. The test can be described thus: Induction of apoptosis in human MCF7 cells assessed as up regulation of caspase-3 expression at IC50 measured after 48 hrs by ELISA relative to control. It counts as functional.
The test system of test [12] is MCF7. As to the kind of experiment: Cytotoxicity against human MCF7 cells assessed as reduction in cell viability measured after 48 hrs by MTT assay. It counts as functional, cell-based. Conditions: MCF7, 48 h.
Test [13] can be described thus: Antioxidant activity assessed as GPx-like activity by measuring oxidation of NADPH to NADP+ by NADPH-reductase coupled assay. It counts as functional.
In test [14] the test system is MCF7. The test can be described thus: Induction of apoptosis in human MCF7 cells assessed as down regulation of Bcl-2 expression at IC50 measured after 48 hrs by ELISA relative to control. It counts as functional. (In general: ELISA stands for enzyme-linked immunosorbent assay.)
The subject of test [15] is A549. The test can be described thus: Cytotoxicity against human A549 cells assessed as reduction in cell viability measured after 24 hrs by MTT assay. The format is functional, cell-based. As to conditions: A549, 24 h.
In test [16] the test system is A549. The test can be described thus: cells. Conditions: Homo sapiens, A549, 48 h.
Description: Cytotoxicity against human A549 cells assessed as reduction in cell viability measured after 48 hrs by MTT assay
The test system of test [17] is MCF7. The test can be described thus: Cytotoxicity against human MCF7 cells assessed as reduction in cell viability measured after 72 hrs by MTT assay. Conditions: MCF7, 72 h. It counts as functional, cell-based.
Test [18] is described as follows: Antioxidant activity assessed as bleomycin-Fe2+-induced DNA degradation by measuring absorbance at 0.1 mg/ml after 1 hr. The format is functional.

Each structure is given as a SMILES string. Activity calls are given as the source filed them. The calls are words filed in the database; no cut-off is given here.

As for `CC(C)Cc1ccc(C(C)C(=O)NCCC[Se]C#N)cc1` (stereo unspecified), the IC50 (commonly the concentration needed to halve the response being measured) came to 12.1 µM with MCF7 [1]; 28.5 µM in the test on A549 [3]; 8.9 µM in the test with SW480 [4]; 13.5 µM in the test on HeLa [5]; 26.3 µM in the test with HeLa [7]; 29.3 µM in the test with HeLa [8]. Also, the concentration for half-maximal inhibition (IC50) in the test with SW480 [9] amounted to 6.4 µM; in the test with SW480 [10] it was 5.3 µM; with MCF7 [12] it was 14.3 µM; with A549 [15] it was 24.4 µM; in the test with A549 [16] it was 30.2 µM; in the test with MCF7 [17], 16.5 µM. The inhibition (commonly how much of the control response was suppressed) in test [2] was 60.8%. The “fold change (FC)” value in the test on MCF7 [6] is 1.5. Besides, the outcome (in the test with MCF7 [11]; in test [13]; with MCF7 [14]) was Active.

As for `CC(C(=O)NCCC[Se]C(F)(F)F)c1ccc(-c2ccccc2)c(F)c1` (stereo unspecified), the IC50 was 12.1 µM in the test on MCF7 [1]; 35.4 µM with A549 [3]; 18.3 µM in the test with SW480 [4]; 30.2 µM with HeLa [5]; 28.4 µM in the test with HeLa [7]; 14.9 µM in the test with HeLa [8]. For the same compound, the IC50 was 19.5 µM with SW480 [9]; 24.4 µM with SW480 [10]; 17.1 µM in the test with MCF7 [12]; 14.5 µM in the test on A549 [15]; 23.2 µM in the test on A549 [16]; 18.5 µM in the test with MCF7 [17]. Moreover, in [2], the inhibition stood at 40.5%. Also, the result in [13] was Active.

Consider `CC(=O)Oc1ccccc1C(=O)NCCC[Se]C(F)(F)F`, for which the IC50 in the test on MCF7 [1] was 3.5 µM; in the test with A549 [3], 17.3 µM; in the test with SW480 [4], 8.2 µM; in the test on HeLa [5] it was 28.7 µM; in the test on HeLa [7], 26.3 µM; with HeLa [8], 15.4 µM. For the same compound, the IC50 in the test with SW480 [9] is 7.8 µM; with SW480 [10], 7.2 µM; in the test with MCF7 [12], 4.2 µM; in the test on A549 [15], 16.4 µM; in the test with A549 [16], 18.6 µM; in the test with MCF7 [17] it was 4.4 µM. In test [2], the inhibition was found to be 72.5%. Also, the outcome (in the test on MCF7 [6]; in test [13]) was Active. For the same compound, in the test with MCF7 [11], the “fold change (FC)” value was found to be 5. Also, in the test on MCF7 [14], the Activity was >50%.

As for `O=C1O[C@H]([C@@H](O)CO)C(O)=C1O`, the inhibition in test [2] turned out to be 92.4%. In addition, the deltaA in test [18] stood at 295.

Take `CC(C)Cc1ccc(C(C)C(=O)NCCC[Se]C(F)(F)F)cc1` (stereo unspecified): the IC50 in the test on MCF7 [1] came out at 3.4 µM; in the test with A549 [3], 18.5 µM; in the test with SW480 [4], 4.9 µM; in the test with HeLa [5] it was 11.5 µM; with HeLa [7] it was 17.4 µM; in the test on HeLa [8] it was 19.7 µM. Besides, the 50% inhibitory concentration (IC50) came out at 4.2 µM in the test on SW480 [9]; 3.3 µM with SW480 [10]; 4.3 µM with MCF7 [12]; 9.4 µM in the test with A549 [15]; 15.2 µM in the test with A549 [16]; 2.8 µM with MCF7 [17]. Besides, the inhibition in test [2] came to 68.7%. Further, the result (in the test on MCF7 [6]; in the test with MCF7 [11]; in [13]) was Active. The Activity with MCF7 [14] was >50%.

For the compound `CC(=O)Oc1ccccc1C(=O)NCCC[Se]C#N`, the concentration for half-maximal inhibition (IC50) in the test with MCF7 [1] was 6.8 µM; in the test with A549 [3], 22.3 µM; with SW480 [4], 9.3 µM; in the test on HeLa [5] it was 31.4 µM; in the test with HeLa [7], 28.4 µM; in the test on HeLa [8] it was 18.3 µM. For the same compound, the IC50 with SW480 [9] came to 8.2 µM; with SW480 [10] it was 7.4 µM; with MCF7 [12] it was 8.6 µM; in the test on A549 [15], 18.4 µM; with A549 [16] it was 22.6 µM; in the test with MCF7 [17], 10.3 µM. Besides, the inhibition in test [2] came out at 52.1%. Besides, the result (in the test with MCF7 [6]; with MCF7 [11]; in [13]; in the test on MCF7 [14]) was Active.

Consider `C[C@H](C(=O)NCCC[Se]C(F)(F)F)c1cccc(C(=O)c2ccccc2)c1`, for which the IC50 in the test on MCF7 [1] was 8.6 µM; in the test on A549 [3] it was 22.6 µM; with SW480 [4], 8.2 µM; in the test with HeLa [5], 19.6 µM; in the test on HeLa [7], 17.5 µM; with HeLa [8], 28.7 µM. Further, the IC50 with SW480 [9] came to 6.5 µM; in the test with SW480 [10], 7.4 µM; in the test with MCF7 [12], 9.3 µM; in the test on A549 [15], 13.1 µM; with A549 [16], 18.4 µM; in the test on MCF7 [17] it was 9.5 µM. In addition, the inhibition in test [2] came out at 48.4%. Also, in [13], the outcome was Active.

Regarding `COc1ccc2cc([C@H](C)C(=O)NCCC[Se]C(F)(F)F)ccc2c1`, the IC50 was 19.3 µM with MCF7 [1]; > 50 µM in the test on A549 [3]; 10 µM in the test with SW480 [4]; 16.5 µM with HeLa [5]; 22.5 µM with HeLa [7]; 30.7 µM in the test on HeLa [8]. Moreover, the IC50 in the test on SW480 [9] was determined as 25.4 µM; in the test with SW480 [10], 15.7 µM; in the test with MCF7 [12], 22.1 µM; in the test on A549 [15] it was 28.4 µM; in the test with A549 [16], 33.5 µM; in the test with MCF7 [17], 35.5 µM. Besides, in [2], the inhibition was determined as 37.2%.

Source of the values: ChEMBL document CHEMBL4765458, “Synthesis and biological evaluation of organoselenium (NSAIDs-SeCN and SeCF) derivatives as potential anticancer agents” (Eur J Med Chem, 2020).
